Measurements: patent US10413581B2, “Combination, composition, and method of administering the combination or composition to animals” (Phibro Animal Health Corporation, priority 2014, dated 2019)

Columns and labels:
Format in all cases: in vivo
[1] = system: coccidia; experiment: Example 10: composition in combination with Monensin: performance, total coccidia oocysts per gram; conditions: Composition 250 ppm, Monensin 68 ppm, alone or combined; for Adj. FCR / Feed Intake / Wt. Gain: D 0-42
Description: (§1) In this examples the effect of a composition comprising Quillaja saponaria and Yucca schidigera in combination with Monensin was determined. In some embodiments, the composition was a commercial product sold under the trade name MAGNI-PHI by Phibro Animal Health Corporation. Four treatment regimens were used: a control with no medication; 250 ppm of the composition; 68 ppm Monensin; and 250 ppm composition in combination with 68 ppm Monensin.
(§2) On Days 14, 21, and 28 fresh fecal samples were collected from each pen. These representative samples were tested to determine the degree of coccidia oocysts per gram of litter, by determining oocysts shedding/cycling. Oocysts per gram were determined for each sample.

[2] = system: E. meleagrimitis; experiment: Example 10: oocysts per gram fecal material, E. meleagrimitis; conditions: Composition 250 ppm, Monensin 68 ppm, alone or combined
Description: as §1, §2

[3] = system: E. adenoeides; experiment: Example 10: oocysts per gram fecal material, E. adenoeides; conditions: Composition 250 ppm, Monensin 68 ppm, alone or combined
Description: as §1, §2

[4] = system: E. gallopavonis; experiment: Example 10: oocysts per gram fecal material, E. gallopavonis; conditions: Composition 250 ppm, Monensin 68 ppm, alone or combined
Description: as §1, §2

CC[C@@]1([C@@H]2O[C@@H]([C@H]3O[C@@](O)(CO)[C@H](C)C[C@@H]3C)C[C@@H]2C)CC[C@H]([C@]2(C)CC[C@]3(C[C@H](O)[C@@H](C)[C@@H]([C@@H](C)[C@@H](OC)[C@H](C)C(=O)O)O3)O2)O1 [Monensin]
Oocysts per gram fecal material Total ([1]; D 14): 1571bc oocysts per gram | Oocysts per gram fecal material Total ([1]; D 21): 3409c oocysts per gram | Oocysts per gram fecal material Total ([1]; D 28): 252b oocysts per gram | Adj. FCR ([1]; Day 14): 1.473b | Feed Intake ([1]; Day 14): 20.04b | Wt. Gain ([1]; Day 14): 0.261a kg | Adj. FCR ([1]; Day 28): 1.562b | Feed Intake ([1]; Day 28): 51.81a | Wt. Gain ([1]; Day 28): 0.703a kg | Adj. FCR ([1]; Day 42): 1.707b | Feed Intake ([1]; Day 42): 124.77b | Wt. Gain ([1]; Day 42): 1.614bc kg | Oocysts per gram fecal material E. mel. ([2]; D 14): 786b oocysts per gram | Oocysts per gram fecal material E. mel. ([2]; D 21): 2549c oocysts per gram | Oocysts per gram fecal material E. mel. ([2]; D 28): 74b oocysts per gram | Oocysts per gram fecal material E. aden. ([3]; D 14): 356ab oocysts per gram | Oocysts per gram fecal material E. aden. ([3]; D 21): 237bc oocysts per gram | Oocysts per gram fecal material E. aden. ([3]; D 28): 29b oocysts per gram | Oocysts per gram fecal material E. gallo. ([4]; D 14): 430ab oocysts per gram | Oocysts per gram fecal material E. gallo. ([4]; D 21): 623a oocysts per gram | Oocysts per gram fecal material E. gallo. ([4]; D 28): 119a oocysts per gram
